Reference: patent publication EP4810052A2, “HCRHR2 SELECTIVE POLYPEPTIDES” (Gubra A/S, priority 2023, dated 2026)
Where two headings read alike, the source gives them in different places. Marks after values point to notes of the source that are not given here. Starred links: 1 amine or outer side, 2 acyl side, 3 side chain; linkers in the order of their positions; H or OH if unused. Non-standard residues stand in square brackets, D forms with d. Residues, ends and D or L forms follow the SMILES beside them. Groups on a side chain read outwards from the residue. *: point of attachment. C20 diacid = O=C(O)CCCCCCCCCCCCCCCCCCC(=O)*; γGlu = O=C(O)[C@H](CCC(=O)[*:2])N[*:1]; NMeI = CC[C@H](C)[C@H](NC)C(=O)O; Nle = CCCC[C@H](N)C(=O)O; AEEA = NCCOCCOCC(=O)O; Aib = CC(C)(N)C(=O)O

Columns and labels:
hCRHR2 = molecular target: T1, hCRHR2 (Homo sapiens, UniProt Q13324); assay: HTRF cAMP assay, determination of hCRHR2 potency (peptide libraries 5 conc., purified peptides 11 conc.); type: cell-based
T1 sequence (Q13324 1-411): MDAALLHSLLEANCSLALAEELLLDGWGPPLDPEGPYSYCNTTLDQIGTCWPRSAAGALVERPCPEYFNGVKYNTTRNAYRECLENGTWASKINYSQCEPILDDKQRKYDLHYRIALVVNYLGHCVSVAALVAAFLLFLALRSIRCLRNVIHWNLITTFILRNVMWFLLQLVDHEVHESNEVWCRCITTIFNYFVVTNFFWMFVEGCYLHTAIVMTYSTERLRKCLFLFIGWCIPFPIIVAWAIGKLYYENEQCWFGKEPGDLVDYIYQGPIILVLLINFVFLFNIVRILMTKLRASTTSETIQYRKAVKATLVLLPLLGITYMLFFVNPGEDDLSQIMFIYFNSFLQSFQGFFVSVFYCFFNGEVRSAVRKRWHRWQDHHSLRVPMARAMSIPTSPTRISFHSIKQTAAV
How it was run: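 EC50 derived by variable-slope sigmoid regression of FRET-based cAMP data; cellular cAMP displaced d2-labelled tracer from cryptate anti-cAMP antibody. Stable human CRHR2 CHO-K1 suspension cells, revived from frozen stocks just before the run.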

hCRHR1 = molecular target: T2, hCRHR1 (Homo sapiens, UniProt P34998); assay: HTRF cAMP assay, determination of hCRHR1 potency (peptide libraries 5 conc., purified peptides 11 conc.); type: cell-based
T2 sequence (P34998 24-415): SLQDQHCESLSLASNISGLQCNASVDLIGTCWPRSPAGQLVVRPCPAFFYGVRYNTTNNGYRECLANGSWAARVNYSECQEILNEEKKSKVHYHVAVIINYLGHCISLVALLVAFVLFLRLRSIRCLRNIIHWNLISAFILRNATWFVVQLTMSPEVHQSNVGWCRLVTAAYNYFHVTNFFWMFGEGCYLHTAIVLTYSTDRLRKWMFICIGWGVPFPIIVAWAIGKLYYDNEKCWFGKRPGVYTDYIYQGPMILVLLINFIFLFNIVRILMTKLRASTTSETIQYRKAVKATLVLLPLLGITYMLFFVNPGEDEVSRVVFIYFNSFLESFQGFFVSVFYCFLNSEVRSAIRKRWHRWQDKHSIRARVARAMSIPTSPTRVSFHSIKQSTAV
How it was run: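 Cellular cAMP was read by time-resolved FRET between d2-labelled cAMP and cryptate anti-cAMP antibody. The cells were freshly thawed suspension CHO-K1 cells stably expressing human CRHR1.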

PK in rats = type: in vivo; design: T½ / MRT: unit not given here; settings: for half-life: read-out: T½ (converted)
How it was run: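 Lean male Sprague Dawley rats (n = 3 per group) got a two-peptide combination at 50 nmol/kg IV and SC. Plasma was sampled from 0.17 to 96 h post dose and analysed by LC-MSMS. PK parameters came from non-compartmental analysis.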

[1] = Effect on acute food intake in mice; type: in vivo; settings: single subcutaneous dose
Experimental: Male NMRI mice were obtained from JanVier (JanVier Labs, France) at 5 weeks of age. The animals were group-housed 4 mice pr. cage under a 12/12 h dark-light cycle, light off at 1 PM. Room temperature was controlled to 22°C ± 1°C, with 60 % ± 20% humidity. Animals had ad libitum access to regular rodent chow (Altromin 1324, Brogaarden, Denmark) and tap water.
Animals were transferred 5-7 days before the start of the study to a real-time food intake monitoring system, HM-2 system (MBRose, Denmark) to allow acclimatization to experimental conditions. As the animals were uniquely identified with microchips, each individual animal was identified by its microchip upon entry and exit from the food channel. Randomization of the mice for each study group (n=7-8) was based on body weight measured the day before the start of the study. A vehicle-treated group was included in each experiment. Six hours before the start of the dark phase, animals were fasted. One hour before the dark phase, animals were dosed once subcutaneously with test peptide. Food intake was reported hourly for a period of 72 hours. The percentage of food intake reduction was normalized to average food intake from the vehicle group. Statistical significance was evaluated using One-way analysis of variance with Dunnett's multiple comparison test. P < 0.05 was considered statistically significant.
Selected compounds were tested according to the general procedure on acute food intake in mice to determine the effect of a single subcutaneous dose on food intake in mice over 3 days.

[2] = pH 7.5
Experimental: Solubility was tested in the following vehicles: 100 mM phosphate buffer facilitating a target pH of 6.5, 7.0, and 7.5. Samples were directly dissolved in Mini-UniPrep Syringeless Filter 0.45 µm unit (Whatman). For the desired concentration, such as a concentration of 4000 µM (approximately 20 mg/mL), 1600 nmol peptide was dissolved in 400 µL vehicle. Samples were incubated for at least 1 h at room temperature on a rocking table. The pH was measured and adjusted. Samples were left on the rocking table for an additional hour before a second pH measurement and adjustment. Visual inspection was performed and noted before the filter was pushed. The concentration of peptide in the filtrate was determined using CAD (Charged Aerosol Detection), double determination was done for each sample. The measured concentration was reported in µM. Furthermore, the pH of the filtrate was measured and reported. Peptides with a measured concentration within +/-20% of target concentration are considered fully soluble.
Compounds were dissolved to a nominal concentration of 4000 µM and analysed as described above. Samples with phenol contained 5.0 mg/ml phenol.

[3] = Table 5, purified peptides, read-out: hCRHR1 EC50
[4] = male, Sprague Dawley (RJHan:SD), in vivo, iv, Rat, 50 nmol/kg i.v.
[5] = male, Sprague Dawley (RJHan:SD), in vivo, sc, Rat, 50 nmol/kg s.c.
[6] = Table 5, purified peptides, read-out: hCRHR2 EC50

Row | Structure (SMILES) | Selectivity ratio (hCRHR1/ hCRHR2) (hCRHR2; Table 5) | EC50 (hCRHR1; [3]) [nM] | MRT (PK in rats; Rat) | T½ (PK in rats; Rat) | % FI compared to vehicle, 24 h post-dosing ([1]; 30 nmol/kg) | % FI compared to vehicle, 24 h post-dosing ([1]; 100 nmol/kg) | % FI compared to vehicle, 24 h post-dosing ([1]; 300 nmol/kg) | Solubility pH 7.5, target conc. =10 mg/mL (measured mg/mL) [2] [mg/mL] | EC50 (hCRHR2; [6]) [nM] | further results
1 | CC[C@H](C)[C@H](N)C(=O)N[C@H](C(=O)N[C@@H](CC(C)C)C(=O)N[C@@H](CO)C(=O)N[C@@H](CC(C)C)C(=O)N[C@@H](CC(=O)O)C(=O)N[C@H](C(=O)N1CCC[C@H]1C(=O)N[C@H](C(=O)NCC(=O)N[C@@H](CC(C)C)C(=O)N[C@@H](CC(C)C)C(=O)N[C@@H](CCC(N)=O)C(=O)N[C@H](C(=O)N[C@@H](CC(C)C)C(=O)N[C@@H](CC(C)C)C(=O)N[C@@H](CCC(=O)O)C(=O)N[C@@H](CCC(N)=O)C(=O)N[C@@H](C)C(=O)N[C@@H](CCCNC(=N)N)C(=O)N[C@@H](C)C(=O)N[C@@H](CCCNC(=N)N)C(=O)N[C@@H](C)C(=O)N[C@@H](C)C(=O)N[C@@H](CCCNC(=N)N)C(=O)N[C@@H](CCC(=O)O)C(=O)N[C@@H](CCC(N)=O)C(=O)N[C@@H](C)C(=O)N[C@@H](CCCCNC(=O)COCCOCCNC(=O)COCCOCCNC(=O)CC[C@H](NC(=O)CC[C@H](NC(=O)CCCCCCCCCCCCCCCCCCC(=O)O)C(=O)O)C(=O)O)C(=O)N[C@H](C(=O)N[C@@H](CC(N)=O)C(=O)N[C@@H](C)C(=O)N[C@@H](CCC(=O)O)C(=O)N[C@H](C(=O)N[C@@H](CC(C)C)C(=O)N[C@@H](C)C(=O)N[C@@H](CCC(=O)O)C(=O)N[C@H](C(N)=O)C(C)C)[C@@H](C)CC)[C@@H](C)O)[C@@H](C)CC)[C@@H](C)CC)C(C)C)C(C)C [SEQ ID NO: 3] (H-IVLSLDVPIGLLQILLEQARARAAREQAK([AEEA-AEEA-γGlu-γGlu-C20 diacid])TNAEILAEV-NH2) | >4546 | > 5000 | 9.2 | 7.7 | 67.63*** % | 30.75*** % | 30.66*** % | 10 |  | EC50 (hCRHR2; Table 3, matched molecular pairs X^38 L vs Nle, peptide library of Example 4, read-out: hCRHR2 pEC50 (converted)): 0.501 nM; Selectivity ratio (hCRHR1/ hCRHR2) (hCRHR2; hCRHR1-EC50/hCRHR2-EC50): >4546; EC50 (hCRHR2; purified peptides, CHO-K1 cells stably expressing hCRHR2, cAMP HTRF, read-out: hCRHR2 EC50): 1.1 nM; EC50 (hCRHR1; Table 3, matched molecular pairs X^38 L vs Nle, peptide library of Example 4, read-out: hCRHR1 pEC50 (converted)): 25100 nM; EC50 (hCRHR1; purified peptides, CHO-K1 cells stably expressing hCRHR1, cAMP HTRF, read-out: hCRHR1 EC50): > 5000 nM; EC50 (hCRHR1; stable cell system, Table 10, read-out: Stable EC50 (nM) hCRHR 1): > 5000 nM; clearance (PK in rats; [4]): 5 mL/h/kg; half-life (PK in rats; [4]): 7.7 h; Cmax (PK in rats; [5]): 90 nM; Tmax (PK in rats; [5]): 24 h; half-life (PK in rats; [5]): 7.9 h; bioavailability (PK in rats; male, Sprague Dawley, rat, in vivo, sc): 27%; Solubility pH 7.5, target conc. =5 mg/mL (measured mg/mL) [2]: 4.5 mg/mL
2 | CCCC[C@H](NC(=O)[C@@H](NC(=O)[C@H](CCC(=O)O)NC(=O)[C@H](C)NC(=O)[C@H](CC(N)=O)NC(=O)[C@H](CCC(=O)O)NC(=O)[C@H](CCCCNC(=O)COCCOCCNC(=O)COCCOCCNC(=O)CC[C@H](NC(=O)CC[C@H](NC(=O)CCCCCCCCCCCCCCCCCCC(=O)O)C(=O)O)C(=O)O)NC(=O)[C@H](C)NC(=O)[C@H](CCC(N)=O)NC(=O)[C@H](CCC(=O)O)NC(=O)[C@H](CCCNC(=N)N)NC(=O)[C@H](C)NC(=O)[C@H](C)NC(=O)[C@H](CCCNC(=N)N)NC(=O)[C@H](C)NC(=O)[C@H](CCCNC(=N)N)NC(=O)[C@H](C)NC(=O)[C@H](CCC(N)=O)NC(=O)[C@H](CO)NC(=O)[C@H](CC(C)C)NC(=O)[C@H](CC(C)C)NC(=O)[C@@H](NC(=O)[C@H](CCC(N)=O)NC(=O)[C@H](CC(C)C)NC(=O)[C@H](CC(C)C)NC(=O)CNC(=O)[C@@H](NC(=O)[C@@H]1CCCN1C(=O)[C@@H](NC(=O)[C@H](CC(=O)O)NC(=O)[C@H](CC(C)C)NC(=O)[C@H](CO)NC(=O)[C@H](CC(C)C)NC(=O)[C@@H](NC(=O)[C@@H](NC)[C@@H](C)CC)C(C)C)C(C)C)[C@@H](C)CC)[C@@H](C)CC)[C@@H](C)CC)C(=O)N[C@@H](C)C(=O)N[C@@H](CCC(=O)O)C(=O)N[C@H](C(N)=O)C(C)C [compound 101] (H-[NMeI]VLSLDVPIGLLQILLSQARARAAREQAK([AEEA-AEEA-γGlu-γGlu-C20 diacid])ENAEI[Nle]AEV-NH2) | 5435 | > 5000 | 6.8 | 6.5 | 30.85*** % | 21.44*** % | 8.09*** % | 11 | 0.92 | 
3 | CCCC[C@H](NC(=O)[C@@H](NC(=O)[C@H](CCC(=O)O)NC(=O)[C@H](C)NC(=O)[C@H](CC(N)=O)NC(=O)C(C)(C)NC(=O)[C@H](CCCCNC(=O)COCCOCCNC(=O)COCCOCCNC(=O)CC[C@H](NC(=O)CC[C@H](NC(=O)CCCCCCCCCCCCCCCCCCC(=O)O)C(=O)O)C(=O)O)NC(=O)[C@H](C)NC(=O)[C@H](CCC(N)=O)NC(=O)[C@H](CCC(=O)O)NC(=O)[C@H](CCCNC(=N)N)NC(=O)[C@H](C)NC(=O)[C@H](C)NC(=O)[C@H](CCCNC(=N)N)NC(=O)[C@H](C)NC(=O)[C@H](CCCNC(=N)N)NC(=O)[C@H](C)NC(=O)[C@H](CCC(N)=O)NC(=O)[C@H](CO)NC(=O)[C@H](CC(C)C)NC(=O)[C@H](CC(C)C)NC(=O)[C@@H](NC(=O)[C@H](CCC(N)=O)NC(=O)[C@H](CC(C)C)NC(=O)[C@H](CC(C)C)NC(=O)CNC(=O)[C@@H](NC(=O)[C@@H]1CCCN1C(=O)[C@@H](NC(=O)[C@H](CC(=O)O)NC(=O)[C@H](CC(C)C)NC(=O)[C@H](CO)NC(=O)[C@H](CC(C)C)NC(=O)[C@@H](NC(=O)[C@@H](N)[C@@H](C)CC)C(C)C)C(C)C)[C@@H](C)CC)[C@@H](C)CC)[C@@H](C)CC)C(=O)N[C@@H](C)C(=O)N[C@@H](CCC(=O)O)C(=O)N[C@H](C(N)=O)C(C)C [compound 237] (H-IVLSLDVPIGLLQILLSQARARAAREQAK([AEEA-AEEA-γGlu-γGlu-C20 diacid])[Aib]NAEI[Nle]AEV-NH2) | >6494 | > 5000 | 5.1 | 4.1 | 51.49*** % | 16.66*** % | 13.2*** % | 10 | 0.77 | 
